Measured values reported in US7427503B2, “Method for transferring material in a cell system” (Eppendorf AG, priority 2000, dated 2008).

Assays:
Jurkat cells [1] = experiment: Electroporation of Jurkat cells with and without trehalose in hypo-osmolar working medium; type: cell-based, human; details: 100 mOsm
Experimental: Electroporation of Cells with and without Trehalose in a Hypo-osmolar Working Medium.
A phosphate buffer with 1.15 mM K2HPO4/KH2PO4 buffer, pH 7.2, was used as a pulse medium. KCl at a concentration of 10 mM (α=1.5−1.6 mS/cm) was added as a conducting salt. After this, trehalose at the respective concentration was added to the pulse medium. Osmolarity was adjusted to 100 mOsm by the addition of inositol, so as to obtain a hypo-osmolar solution.
Jurkat cells that are cells of a human T-lymphocytes line were used. 40 μg/ml propidium iodide, which is a membrane-impermeable DNA dye, was added as the material to be transferred.
Pulse application took place after 10 minutes of incubation prior to pulse application, in the pulse medium at room temperature (cell density: 2-3×10^6 cells/ml). Pulse duration was 20 μs.
Electroporation took place in an Eppendorf multiporator. After pulse application, the pores were left to reseal for 10 min at room temperature.
Electropermeabilisation took place at the following trehalose concentrations: 0 mM and 40 mM (α,α-trehalose).
Pulsing takes place at 4° C. or at room temperature. This can be single pulsing; however, multiple pulsing involving up to 3 pulses can at times be advantageous.

Jurkat cells [2] = experiment: Electroporation of Jurkat cells with and without trehalose in iso-osmolar working medium; type: cell-based, human; details: 290 mOsm
Experimental: Electroporation of Cells with and without Trehalose in an Iso-osmolar Working Medium.
Essentially, the same experimental conditions as in Example 1 applied, except that the osmolarity of the pulse medium was adjusted to iso-osmolar conditions by adding inositol to 290 mOsm.
Again, α,α-trehalose was added in the following concentrations: 0 mM and 40 mM.

With OC[C@H]1O[C@H](O[C@H]2O[C@H](CO)[C@@H](O)[C@H](O)[C@H]2O)[C@H](O)[C@@H](O)[C@@H]1O [trehalose, α,α-trehalose] the propidium iodide uptake (Jurkat cells [1]; 40 mM trehalose vs 0 mM, 40 μg/ml propidium iodide, FIG. 1) was “only slightly influenced”, the “pulse efficiency (product of propidium iodide uptake and survival rate)” value (Jurkat cells [1]; 40 mM trehalose vs control without trehalose, increasing field strength, FIG. 2) was “significantly above the values of a control sample” and the survival rate (Jurkat cells [2]; 40 mM trehalose vs 0 mM, above all at high field strength, FIG. 3) was “untreated cells (0 mM, outline squares) is many times less than in the case of cells treated with 40 mM trehalose”. For the same compound, the propidium iodide uptake (Jurkat cells [2]; 40 mM trehalose vs 0 mM, FIG. 3) was “varies less markedly” and the pulse efficiency (Jurkat cells [2]; 40 mM trehalose, increasing field strength, FIG. 4) was “gradual increase in the pulse efficiency”.
